Results from US20210260064A1, “POZIOTINIB COMBINATIONS WITH AN ANTI-HER1, HER2 OR HER4 ANTIBODY AND METHODS OF USE THEREOF” (Spectrum Pharmaceuticals, Inc., priority 2018, published 2021).
Read-outs that look alike come from different tables or passages of the source.

Tests used:
[1] = tested on: BT-474 cells; assay: Combination of poziotinib with other anticancer drugs, synergy on proliferation; assay type: cell-based; details: HER2-overexpressed, ER-negative breast cancer cells
[2] = tested on: MBA-MB-453 cells; assay: as above; assay type: cell-based; details: HER2 overexpressed trastuzumab resistant breast cancer cells; concentrations equal to or lower than the GI50 of poziotinib alone
[3] = tested on: HER2-positive GC; details: monotherapy; cited from earlier work
[4] = tested on: NSCLC patients having EGFR activating mutations; details: in vivo; cited from earlier work
[5] = tested on: HER2-amplified GC cells; details: in vitro; cited from earlier work
[6] = tested on: patients with HER2-positive GC; assay: Phase I/II study of poziotinib combined with paclitaxel and trastuzumab: safety (TEAEs, DLT, MTD, dose adjustments); assay type: in vivo; details: for MTD of poziotinib: combined with paclitaxel and trastuzumab
Procedure: (§1) A prospective phase I/II study was conducted at 11 treatment centers in Korea. Patients with HER2-positive GC who previously had received one or more lines of chemotherapy were enrolled. Enrolled patients received oral poziotinib (8 mg or 12 mg) once daily for 14 days, followed by 7 days off.
(§2) Patients. […] Key exclusion criteria included: a history of hypersensitivity to drugs containing Cremophor® EL and trastuzumab; previous exposure to taxanes, and symptomatic central nervous system metastasis.
(§3) Treatment Procedures. […] DLTs were evaluated in 6 patients at each poziotinib dose level.
(§4) Safety Analyses and Efficacy. Adverse events (AEs) and TEAEs were evaluated using National Cancer Institute-Common Terminology Criteria for Adverse Events (version 4.03). DLTs were defined as grade […] non-hematologic toxicities (except for alopecia); grade ≥3 diarrhea, nausea and vomiting, despite maximal dosage of anti-diarrhea and/or anti-emetic medication (as applicable); and grade 4 neutropenia sustained for ≥7 days, grade 3-4 neutropenia with fever or infection, grade 4 thrombocytopenia and grade 3 thrombocytopenia sustained for 7 days, or with accompanying bleeding, or requiring transfusion. Left ventricular ejection fraction (LVEF) assessment was performed at baseline, on day 1 of the first 3 cycles and every 3 cycles thereafter. All patients who received at least one dose of poziotinib were included in the safety analysis. Tumor response was evaluated by CT or MRI of the thorax, abdomen and pelvis every 6 weeks using RECIST version 1.1, according to investigator assessment.
(§5) Statistical Analysis. The primary objective of phase I was to assess the safety and tolerability of poziotinib and to determine the MTD of poziotinib when combined with paclitaxel and trastuzumab. The primary objective of the phase II part was to assess the objective response rate (ORR) of poziotinib combined with paclitaxel and trastuzumab. The secondary objectives were to evaluate the safety and tolerability, progression-free survival (PFS), time to tumor progression (TTP) and duration of overall response (DOR).

[7] = tested on: patients with HER2-positive GC; assay: Phase I/II study of poziotinib combined with paclitaxel and trastuzumab: efficacy (tumor response RECIST 1.1, survival); assay type: in vivo, human
Procedure: as §1, §2, §3, §4, §5
For phase II, it was hypothesized that an ORR <5% would be ineffective and an ORR >20% would be considered to be clinically significant. Sample size was calculated using Simon's 2-stage minimax design, with 80% power and a significance level of 5%. Of the total 27 target subjects, 13 were required in the 1st stage. If the tumor response was 0 out of 13 patients, the study was planned to be terminated early. However, if at least 1 response was observed, an additional 14 patients would be enrolled in the study.

[8] = cited from earlier work; for ORR / median PFS: monotherapy
[9] = tested on: SK-BR-3 cells; assay: Combination of poziotinib with other anticancer drugs, synergy on proliferation; assay type: cell-based; details: HER2-overexpressed and ER-negative
[10] = tested on: MDA-MB-361 cells; assay: as above; assay type: cell-based; details: HER2-overexpressed, ER-positive, trastuzumab resistant
[11] = tested on: MCF-7 cells; assay: as above; assay type: cell-based; details: not HER1 and HER2-overexpressed and ER-positive
[12] = tested on: MDA-MB-468 cells; assay: as above; assay type: cell-based; details: HER2 negative, ER-negative, HER1-overexpressed triple negative breast cancer cells
[13] = tested on: HER2-positive breast cancer; details: in combination with docetaxel plus trastuzumab; cited from earlier work
[14] = tested on: HER2-positive GC; details: in combination with chemotherapy; cited from earlier work
[15] = tested on: patients with HER2-positive GC; details: patients who failed prior fluoropyrimidine and platinum, cited from earlier work
[16] = All patients, Phase I 12 mg (5)
[17] = All patients, Phase I Total (12)
[18] = All patients, Phase II RD: 8 mg (32)
[19] = All patients, Total population Total (44)
[20] = Trastuzumab-naïve patients, Phase I 8 mg (n 3)
[21] = Trastuzumab-naïve patients, Phase I Total (n 3)
[22] = Trastuzumab-naïve patients, Phase II RD: 8 mg (n 8)
[23] = Trastuzumab-naïve patients, Total population (n 11)
[24] = Trastuzumab-pretreated Patients, Phase I 8 mg (n 4)
[25] = Trastuzumab-pretreated Patients, Phase I 12 mg (n 5)
[26] = Trastuzumab-pretreated Patients, Phase I Total (n 9)
[27] = Trastuzumab-pretreated Patients, Phase II RD: 8 mg (n 24)
[28] = Trastuzumab-pretreated Patients, Total population (n 33)

In the case of O=c1[nH]cc(F)c(=O)[nH]1 [5-FU, 5-fluorouracil], the “synergistic effect when combined with poziotinib” value (shortened to “synergistic effect when combined”) [1] is reported as “high synergistic effect” and the “synergistic effect when combined” value [2] is reported as “excellent synergistic effect”.
With N.N.[Cl][Pt][Cl] [cisplatin] the “synergistic effect when combined” value [1] was “high synergistic effect” and the “synergistic effect when combined” value [2] was “excellent synergistic effect”.
For COc1cc2ncnc(Nc3ccc(F)c(Cl)c3)c2cc1NC(=O)/C=C/CN1CCCCC1 [dacomitinib], the ORR [3] is listed as 7.4% and the “median PFS” value [3] is listed as 2.1 months.
In the case of C#Cc1cccc(Nc2ncnc3cc(OCCOC)c(OCCOC)cc23)c1 [erlotinib], the “Patients observed to be resistant due to the EGFR T790M mutation” value [4] is given as “about 60%”.
For CS(=O)(=O)CCNCc1ccc(-c2ccc3ncnc(Nc4ccc(OCc5cccc(F)c5)c(Cl)c4)c3c2)o1 [lapatinib], the “anti-tumor activity of dual blockade with trastuzumab” value [5] is given as “highly synergistic anti-tumor activity”.
For CC(=O)O[C@H]1C(=O)[C@@]2(C)[C@H]([C@H](OC(=O)c3ccccc3)[C@]3(O)C[C@H](OC(=O)[C@H](O)[C@@H](NC(=O)c4ccccc4)c4ccccc4)C(C)=C1C3(C)C)[C@]1(OC(C)=O)CO[C@@H]1C[C@@H]2O [paclitaxel], the “synergistic effect when combined” value [1] was “high synergistic effect” and the “synergistic effect when combined” value [2] was “excellent synergistic effect”.
In the case of C=CC(=O)N1CCC(Oc2cc3c(Nc4ccc(Cl)c(Cl)c4F)ncnc3cc2OC)CC1 [poziotinib, 1-[4-[4-(3,4-dichloro-2-fluorophenylaminino)-7-methoxyquinazolin-6-yloxy]-piperidin-1-yl]prop-2-en-1-one], the “TEAEs by Maximum Severity: Grade 5 (death)” value ([6]; Phase I 12 mg (n = 5)) is reported as 0 n, the “TEAEs leading to death” value ([6]; Phase I 12 mg (n = 5)) is reported as 0 n and the MTD of poziotinib ([6]; Phase I part of the current study) is reported as 8 mg/day. For the same compound, the MTD of poziotinib ([6]; Phase I, once daily 14 days, 7 days off) was 8 mg, the “AE related to poziotinib: Fatigue” value ([6]; human, in vivo) was 0 n and the “AE related to poziotinib: Myalgia” value ([6]; human, in vivo) was 0 n. The “AE related to poziotinib: Vomiting” value ([6]; human, in vivo) was 0 n, the “Left ventricular systolic dysfunction (LVSD)” value ([6]; human, in vivo) was “no grade 3 or 4 left ventricular systolic dysfunction” and the “TEAE ≥Grade 3: Abdominal pain” value ([6]; human, in vivo) was 0 n. The “TEAE ≥Grade 3: Mucosal inflammation” value ([6]; human, in vivo) was 0 n, the “TEAE ≥Grade 3: Pruritus” value ([6]; human, in vivo) was 0 n and the “TEAE ≥Grade 3: Rash” value ([6]; human, in vivo) was 0 n. The “TEAE ≥Grade 3: Stomatitis” value ([6]; human, in vivo) was 0 n, the “TEAEs by Maximum Severity: Grade 1 (mild)” value ([6]; human, in vivo) was 0 n and the “Overall survival, Median” value ([7]; All patients, Phase I 8 mg (7)) was 30.6 weeks. For the same compound, the “Progression free survival, Median” value ([7]; All patients, Phase I 8 mg (7)) was 17.1 weeks, the “Time to tumor progression, Median” value ([7]; All patients, Phase I 8 mg (7)) was 18.2 weeks and the “Overall survival, Median” value [7, 16] was 19.9 weeks. For the same compound, the “Progression free survival, Median” value [7, 16] was 17.7 weeks, the “Time to tumor progression, Median” value [7, 16] was 17.7 weeks and the “Overall survival, Median” value [7, 17] was 30.6 weeks. The “Progression free survival, Median” value [7, 17] was 17,7 weeks, the “Time to tumor progression, Median” value [7, 17] was 17.9 weeks and the “Overall survival, Median” value [7, 18] was 29.5 weeks. For the same compound, the “Progression free survival, Median” value [7, 18] was 13.0 weeks, the “Time to tumor progression, Median” value [7, 18] was 15.0 weeks and the “Overall survival, Median” value [7, 19] was 29.5 weeks. For the same compound, the “Progression free survival, Median” value [7, 19] was 16.0 weeks, the “Time to tumor progression, Median” value [7, 19] was 17.1 weeks and the “Best overall response: CR” value ([7]; Phase I 8 mg (n = 7)) was 0 n. For the same compound, the “Duration of overall response, Median” value ([7]; Phase I 8 mg, 2 patients) was 14.5 weeks, the “Best overall response: CR” value ([7]; Phase I 12 mg (n = 5)) was 0 n and the “Best overall response: unknown” value ([7]; Phase I 12 mg (n = 5)) was 0 n. For the same compound, the “Duration of overall response, Median” value ([7]; Phase I 12 mg, 2 patients) was 20.4 weeks, the “Duration of overall response, Median” value ([7]; Phase I Total) was 15.0 weeks and the “Best overall response: CR” value ([7]; Phase I Total (n = 12)) was 0 n. For the same compound, the “Patients with tumor shrinkage” value ([7]; Phase II) was “Twenty”, the “Duration of overall response, Median” value ([7]; Phase II RD: 8 mg, 7 patients) was 26.8 weeks and the “Overall survival, Median” value [7, 20] was 194.9 weeks. For the same compound, the “Progression free survival, Median” value [7, 20] was 30.6 weeks, the “Overall survival, Median” value [7, 21] was 194.9 weeks and the “Progression free survival, Median” value [7, 21] was 30.6 weeks. The Disease control rate [7, 22] was 5 n, the “Overall survival, Median” value [7, 22] was 42.6 weeks and the “Progression free survival, Median” value [7, 22] was 18.7 weeks. The “Overall survival, Median” value [7, 23] was 59.2 weeks, the “Progression free survival, Median” value [7, 23] was 20.7 weeks and the “Overall survival, Median” value [7, 24] was 30.6 weeks. The “Progression free survival, Median” value [7, 24] was 15.5 weeks, the “Overall survival, Median” value [7, 25] was 19.9 weeks and the “Progression free survival, Median” value [7, 25] was 17.7 weeks. For the same compound, the “Overall survival, Median” value [7, 26] was 21.1 weeks, the “Progression free survival, Median” value [7, 26] was 17.7 weeks and the “Overall survival, Median” value [7, 27] was 29.5 weeks. For the same compound, the “Progression free survival, Median” value [7, 27] was 13.0 weeks, the “Overall survival, Median” value [7, 28] was 29.5 weeks and the “Progression free survival, Median” value [7, 28] was 15.0 weeks. For the same compound, the “MTD of poziotinib as monotherapy” value ([8]; continuous dosing) was 18 mg/day, the “MTD of poziotinib as monotherapy” value ([8]; intermittent dosing (14 days on and 7 days off)) was 24 mg/day and the ORR ([8]; continuous dosing schedule) was 21%. For the same compound, the “median PFS” value ([8]; continuous dosing schedule) was 9.0 weeks, the ORR ([8]; intermittent dosing schedule) was 16% and the “median PFS” value ([8]; intermittent dosing schedule) was 12.0 weeks.
In the case of CCC1=C[C@@H]2CN(C1)Cc1c([nH]c3ccccc13)[C@@](C(=O)OC)(c1cc3c(cc1OC)N(C)[C@H]1[C@@](O)(C(=O)OC)[C@H](OC(C)=O)[C@]4(CC)C=CCN5CC[C@]31[C@@H]54)C2 [vinorelbine], the “synergistic effect when combined” value [1] is reported as “synergistic effect was not observed”, the “synergistic effect when combined” value [9] is reported as “sufficient effect was observed to indicate synergy” and the “synergistic effect when combined” value [10] is reported as “synergistic effect at some concentrations”. For the same compound, the “synergistic effect when combined” value [11] was “synergy at every concentration” and the “synergistic effect when combined” value [12] was “synergistic effect was observed”.
For “pertuzumab: anti-HER2 antibody used for dual blockade with trastuzumab”, the “Effect on OS” value [13] is listed as “significantly increased OS” and the “Effect on OS” value [14] is listed as “did not extend OS”.
In the case of trastuzumab emtansine, the ORR [15] is given as 20.6% and the “Efficacy compared with paclitaxel” value ([15]; phase III) is given as “not superior to paclitaxel”.
